pEC50, pIC50: −log10 of the molar value. Like-named read-outs stand apart in the source and are kept apart here.
Experiments:
[1] = biological target: T1, S2035I mTOR (Homo sapiens, UniProt P42345, S2035I); assay: 3A1 clone stably expressing SB-eIF4E, transiently expressing LB-4E-BP2 and S2035I mTOR; assay type: cell-based; conditions: 3A1 stably SB-eIF4E, concentration curves at least 5 logs, FIG. 16
T1 construct: our assay has the ability to measure the function of full-length mTOR and its genetic variants; expressed in transfected cells
Source text: (§1) To overcome this issue, we created a stable cell pool with the 3A1 clone, stably expressing only SB-eIF4E.

[2] = biological target: T2, WT mTOR (Homo sapiens, UniProt P42345); assay: 3A1 clone stably expressing SB-eIF4E, transiently expressing LB-4E-BP2 and WT mTOR; assay type: cell-based; conditions: 3A1 stably SB-eIF4E, concentration curves at least 5 logs, FIG. 16
T2 construct: our assay has the ability to measure the function of full-length mTOR and its genetic variants; expressed in transfected cells
Source text: as §1

[3] = test system: phosphorylation of the ribosomal protein S6; conditions: Guichard et al., 2015; read-out: IC50 for inhibition of phosphorylation of the ribosomal protein S6; cited from earlier work
[4] = biological target: T3, mTOR (Homo sapiens, UniProt P42345); assay: 3A1 clone with stable expression of SB-eIF4E/LB-4E-BP2 (stable pool and single-cell clones); assay type: cell-based; conditions: 3A1 stable cell line pool expressing SB-eIF4E/LB-4E-BP2, FIG. 12
Description: Taking the 3A1 clone, we created a stable cell line pool (cells that underwent a minimum of 2 weeks of hygromycin selection) with stable expression of SB-eIF4E/ LB-4E-BP2.
Three to five days after transfection, the transfected cells were trypsinized and replated on to 6-count of 10 cm plates containing 300 μg/ml of hygromycin (ThermoFisher). For 7 days, media was replaced every 2-3 days with fresh hygromycin, after which cells were trypsinized, pooled and concentrated, and counted for plating as single cells on to 96-well plates. Fifty ml containing 400 cells were plated on to 5-count of 96-well plates with each well containing 100 μl of media+cell. DMEM conditioned with previous incubation with HEK293 cells was saved, filtered, and used for single-cell plating. The remainder of the hygromycin treated cells was then pooled and used as “stable pools” for experimentation.

[5] = biological target: T3, mTOR; assay type: cell-based; conditions: 3A1 clone transiently transfected with SB-eIF4E/LB-4E-BP2, FIG. 11
Source text: We compared single-cell clone termed “3A1” (FIG. 10A,B) with single-cell clone termed “1C3” (FIG. 10C,D) in the assay containing either LB-4E-BP1(Figure 10A,C) or LB-4E-BP2 (FIG. 10B,D).

[6] = biological target: T2, WT mTOR; assay: B10 clone (4E-BP dKO, MTOR genomic modification) stably expressing SB-eIF4E, transient LB-4E-BP2 and WT mTOR; assay type: cell-based; conditions: FIG. 18
Source text: With the goal of our assay to measure the effects of mTOR mutations in combination with different types of mTOR inhibitors, we performed our assay using the B10 cell clone stably expressing SB-eIF4E and transiently expressing LB-4E-BP2 and either WT or L2185A mTOR.

[7] = biological target: T1, S2035I mTOR; assay: B10 clone stably expressing SB-eIF4E, transient LB-4E-BP2 and S2035I mTOR; assay type: cell-based; conditions: FIG. 18
[8] = test system: cellular proliferation; conditions: Hsieh et al., 2012; read-out: EC50 for the inhibition of cellular proliferation; cited from earlier work
[9] = test system: phosphorylation of 4E-BP1; conditions: read-out: reported IC50 in inhibiting phosphorylation of 4E-BP1; Western blot; Sedrani et al., 1998; cited from earlier work

Row | SMILES | concentration dependence of signal [1] | concentration dependence of signal [2] | pIC50 [3] | concentration dependence of luminescence [4] | concentration dependence of luminescence [5] | concentration dependence of signal [6] | concentration dependence of signal [7] | pEC50 [8] | pIC50 [9]
1 | CNC(=O)c1cccc(-c2ccc3c(N4CCOC[C@@H]4C)nc(N4CCOC[C@@H]4C)nc3n2)c1 [AZD2014] | concentration-dependent increase | concentration-dependent increase in signal | 6.68 | concentration-dependent activation of luminescence | concentration dependent activation | concentration-dependent increase for both mTORs | concentration-dependent increase for both mTORs | – | –
2 | CO[C@H]1CC[C@H](N2C(=O)CNc3ncc(-c4ccc(C(C)(C)O)nc4)nc32)CC1 [CC223] | – | – | – | concentration-dependent increase in luminescence | – | – | – | – | –
3 | CC(C)n1nc(-c2ccc3oc(N)nc3c2)c2c(N)ncnc21 [INK128] | concentration-dependent increase | concentration-dependent increase in signal | – | concentration-dependent activation of luminescence | concentration dependent activation | concentration-dependent increase for both mTORs | concentration-dependent increase for both mTORs | 7.77 | –
4 | CO[C@@H](C)Cn1c(=O)n(C)c2cnc3ccc(-c4cncc(C(C)(C)O)c4)cc3c21 [LY3023414] | – | – | – | concentration-dependent increase in luminescence | – | – | – | – | –
5 | CCc1cncnc1N1CCN(Cc2nc3ccc(C(F)(F)F)cc3[nH]2)CC1 [PF4708671] | – | – | – | did not | – | – | – | – | –
6 | CO[C@H]1C[C@@H]2CC[C@@H](C)[C@@](O)(O2)C(=O)C(=O)N2CCCC[C@H]2C(=O)O[C@H]([C@H](C)C[C@@H]2CC[C@@H](OCCO)[C@H](OC)C2)CC(=O)[C@H](C)/C=C(\C)[C@@H](O)[C@@H](OC)C(=O)[C@H](C)C[C@H](C)/C=C/C=C/C=C/1C [everolimus] | rapamycin resistance | concentration-dependent increase in signal | – | concentration-dependent activation of luminescence | concentration dependent activation | – | cleaner difference between the WT and S2035I mTOR | – | 8.62 to 8.80

Source: patent US10351609B2, “Cell-based assay for determining mTOR activity” (Medical Diagnostic Laboratories, LLC, priority 2016, dated 2019)
